A value given as a limit tells only on which side of the number the result lay.

Usually mortality stands for the share of the test organisms that died. Read a high mortality as a strong lethal effect.

Type in all cases: in vivo
The test system of experiment [1] is Myzus persicae (Green Peach Aphid). The experiment is described as follows: Myzus persicae (green peach aphid) feeding/contact activity, sunflower leaf discs. To be noted: foliar, 144 h, application rate 200 ppm, aphid population of mixed ages, 6 days after infestation. The protocol:
Myzus persicae (Green Peach Aphid): Feeding/Contact Activity
Sunflower leaf discs were placed onto agar in a 24-well microtiter plate and sprayed with aqueous test solutions prepared from 10,000 ppm DMSO stock solutions. After drying, the leaf discs were infested with an aphid population of mixed ages. The samples were assessed for mortality 6 days after infestation.

The subject of experiment [2] is Bemisia tabaci (Cotton White Fly). Briefly: Bemisia tabaci (cotton white fly) feeding/contact activity, cotton leaf discs. The conditions noted are these: foliar, 144 h, application rate 200 ppm, adult white flies, 6 days after incubation. The protocol:
Bemisia tabaci (Cotton White Fly): Feeding/Contact Activity
Cotton leaf discs were placed on agar in 24-well microtiter plates and sprayed with aqueous test solutions prepared from 10,000 ppm DMSO stock solutions. After drying the leaf discs were infested with adult white flies. The samples were checked for mortality 6 days after incubation.

The subject of experiment [3] is Myzus persicae (Green Peach Aphid). Briefly: Myzus persicae intrinsic activity, sucrose solution under Parafilm. To be noted: 120 h, test rate 12 ppm, 5 days after infestation. From the text:
Myzus persicae (Green Peach Aphid). Intrinsic Activity
Test compounds prepared from 10,000 ppm DMSO stock solutions were applied by pipette into 24-well microtiter plates and mixed with sucrose solution. The plates were closed with a stretched Parafilm. A plastic stencil with 24 holes was placed onto the plate and infested pea seedlings were placed directly on the Parafilm. The infested plate was closed with a gel blotting paper and another plastic stencil and then turned upside down. The samples were assessed for mortality 5 days after infestation.

Experiment [4] shares this test system. Briefly: Myzus persicae systemic activity, pea seedling roots in test solution. The conditions noted are these: 144 h, test rate 24 ppm, systemic via pea seedling roots, 6 days. The method, then:
Myzus persicae (Green Peach Aphid). Systemic Activity
Roots of pea seedlings infested with an aphid population of mixed ages were placed directly into aqueous test solutions prepared from 10,000 ppm DMSO stock solutions. The samples were assessed for mortality 6 days after placing seedlings into test solutions.

For the compound `O=c1nc2n(Cc3ccc(Cl)nc3)cccc-2n1-c1ccc(C(F)(F)F)cc1` [Compound A13, 4-[(6-chloro-3-pyridyl)methyl]-1-[4-(trifluoromethyl)phenyl]imidazo[4,5-b]pyridin-2-one], the mortality at 200 ppm in experiment [1] and in experiment [2] was at least 80% each time. Moreover, in experiment [3], the mortality at 12 ppm was at least 80%.
In experiment [4], `O=c1nc2n(Cc3ccc(Cl)nc3)cccc-2n1-c1cncnc1` [Compound A16, 4-[(6-chloro-3-pyridyl)methyl]-1-pyrimidin-5-yl-imidazo[4,5-b]pyridin-2-one] yielded a mortality at 24 ppm of at least 80%. This compound yielded a mortality at 12 ppm in experiment [3] of at least 80%.
Regarding `O=c1nc2n(Cc3ccc(Cl)nc3)cccc-2n1-c1cncc(Cl)c1` [Compound A22, 1-(5-chloro-3-pyridyl)-4-[(6-chloro-3-pyridyl)methyl]imidazo[4,5-b]pyridin-2-one], the mortality at 24 ppm in experiment [4] was at least 80%. Also, the mortality at 12 ppm in experiment [3] was at least 80%.
With `O=c1nc2n(Cc3ccc(Cl)nc3)cccc-2n1-c1ccc(C(F)(F)F)nc1` [Compound A24, 4-[(6-chloro-3-pyridyl)methyl]-1-[6-(trifluoromethyl)-3-pyridyl]imidazo[4,5-b]pyridin-2-one], in experiment [4], the mortality at 24 ppm is at least 80%. This compound yielded a mortality at 12 ppm in experiment [3] of at least 80%.
In experiment [4], `O=c1nc2n(Cc3ccc(Cl)nc3)cccc-2n1-c1cncc(C(F)(F)F)c1` [Compound A25, 4-[(6-chloro-3-pyridyl)methyl]-1-[5-(trifluoromethyl)-3-pyridyl]imidazo[4,5-b]pyridin-2-one] registered a mortality at 24 ppm of at least 80%. Besides, the mortality at 200 ppm in experiment [1] was at least 80%. In addition, the mortality at 12 ppm in experiment [3] is at least 80%.
Turning to `O=c1nc2n(Cc3ccc(Cl)nc3)cccc-2n1-c1ccccn1` [Compound A27, 4-[(6-chloro-3-pyridyl)methyl]-1-(2-pyridyl)imidazo[4,5-b]pyridin-2-one], the mortality at 24 ppm in experiment [4] is at least 80%. Besides, the mortality at 12 ppm in experiment [3] was at least 80%.
For `O=c1nc2n(Cc3ccc(Cl)nc3)cccc-2n1-c1ccc(F)cc1` [Compound A32, 4-[(6-chloro-3-pyridyl)methyl]-1-(4-fluorophenyl)imidazo[4,5-b]pyridin-2-one], in experiment [4], the mortality at 24 ppm was at least 80%. Besides, the mortality at 200 ppm in experiment [1] was at least 80%. For the same compound, the mortality at 12 ppm in experiment [3] is at least 80%.
In the case of `O=c1nc2n(Cc3ccc(Cl)nc3)cccc-2n1-c1ccc(OC(F)(F)F)cc1` [Compound A39, 4-[(6-chloro-3-pyridyl)methyl]-1-[4-(trifluoromethoxy)phenyl]imidazo[4,5-b]pyridin-2-one], the mortality at 200 ppm in experiment [1] and in experiment [2] was at least 80% in each case. For the same compound, the mortality at 12 ppm in experiment [3] is at least 80%.
Consider `N#Cc1ccccc1-n1c2cccn(Cc3ccc(Cl)nc3)c-2nc1=O` [Compound A40, 2-[4-[(6-chloro-3-pyridyl)methyl]-2-oxo-imidazo[4,5-b]pyridin-1-yl]benzonitrile], for which the mortality at 24 ppm in experiment [4] is at least 80%. Moreover, the mortality at 200 ppm in experiment [1] was at least 80%. Besides, the mortality at 12 ppm in experiment [3] is at least 80%.
Regarding `CC(C)n1cc(-n2c3cccn(Cc4ccc(Cl)nc4)c-3nc2=O)cn1` [Compound A62, 4-[(6-chloro-3-pyridyl)methyl]-1-(1-isopropylpyrazol-4-yl)imidazo[4,5-b]pyridin-2-one], the mortality at 200 ppm in experiment [1] and in experiment [2] was at least 80% each time. In experiment [3], this compound registered a mortality at 12 ppm of at least 80%.
Regarding `O=c1nc2n(Cc3ccc(Cl)nc3)cccc-2n1-c1cncs1` [Compound A66, 4-[(6-chloro-3-pyridyl)methyl]-1-thiazol-5-yl-imidazo[4,5-b]pyridin-2-one], the mortality at 200 ppm in experiment [1] and in experiment [2] was at least 80% in each case. The same compound gave a mortality at 12 ppm in experiment [3] of at least 80%.
Regarding `O=c1nc2n(Cc3ccc(Cl)nc3)cccc-2n1-c1ccoc1` [Compound A70, 4-[(6-chloro-3-pyridyl)methyl]-1-(3-furyl)imidazo[4,5-b]pyridin-2-one], the mortality at 200 ppm in experiment [2] is at least 80%. The mortality at 12 ppm in experiment [3] is at least 80%.
In the case of `O=c1nc2n(Cc3ccc(Cl)nc3)cccc-2n1-c1nnc(C2CC2)o1` [Compound A79, 4-[(6-chloro-3-pyridyl)methyl]-1-(5-cyclopropyl-1,3,4-oxadiazol-2-yl)imidazo[4,5-b]pyridin-2-one], the mortality at 200 ppm in experiment [1] is at least 80%. The compound further had a mortality at 12 ppm in experiment [3] of at least 80%.
`O=c1nc2n(Cc3ccc(Cl)nc3)cccc-2n1-c1ccccc1C(F)(F)F` [Compound A81, 4-[(6-chloro-3-pyridyl)methyl]-1-[2-(trifluoromethyl)phenyl]imidazo[4,5-b]pyridin-2-one] came in with a mortality at 200 ppm in experiment [1] of at least 80%. Also, the mortality at 12 ppm in experiment [3] is at least 80%.
Regarding `COc1ccccc1-n1c2cccn(Cc3ccc(Cl)nc3)c-2nc1=O` [Compound A82, 4-[(6-chloro-3-pyridyl)methyl]-1-(2-methoxyphenyl)imidazo[4,5-b]pyridin-2-one], in experiment [4], the mortality at 24 ppm was at least 80%. Besides, the mortality at 200 ppm in experiment [1] is at least 80%. This compound also had a mortality at 12 ppm in experiment [3] of at least 80%.
The compound `CCCn1cc(-n2c3cccn(Cc4ccc(Cl)nc4)c-3nc2=O)cn1` [Compound A83, 4-[(6-chloro-3-pyridyl)methyl]-1-(1-propylpyrazol-4-yl)imidazo[4,5-b]pyridin-2-one] had a mortality at 24 ppm in experiment [4] of at least 80%. For the same compound, the mortality at 200 ppm in experiment [1] and in experiment [2] was at least 80% in each case. Moreover, in experiment [3], the mortality at 12 ppm is at least 80%.
Consider `O=c1nc2n(Cc3ccc(Cl)nc3)cccc-2n1-c1cnn(CC(F)(F)F)c1` [Compound A85, 4-[(6-chloro-3-pyridyl)methyl]-1-[1-(2,2,2-trifluoroethyl)pyrazol-4-yl]imidazo[4,5-b]pyridin-2-one], for which, in experiment [4], the mortality at 24 ppm was at least 80%. Also, the mortality at 200 ppm in experiment [1] and in experiment [2] was at least 80% in each case. Moreover, the mortality at 12 ppm in experiment [3] is at least 80%.
Compound `Cn1nc(C(F)(F)F)cc1-n1c2cccn(Cc3ccc(Cl)nc3)c-2nc1=O` [Compound A88, 4-[(6-chloro-3-pyridyl)methyl]-1-[2-methyl-5-(trifluoromethyl)pyrazol-3-yl]imidazo[4,5-b]pyridin-2-one] displayed a mortality at 24 ppm in experiment [4] of at least 80%. Also, the mortality at 200 ppm in experiment [1] and in experiment [2] was at least 80% in each case. This compound had a mortality at 12 ppm in experiment [3] of at least 80%.
In experiment [4], `CC(C)n1nccc1-n1c2cccn(Cc3ccc(Cl)nc3)c-2nc1=O` [Compound A94, 4-[(6-chloro-3-pyridyl)methyl]-1-(2-isopropylpyrazol-3-yl)imidazo[4,5-b]pyridin-2-one] returned a mortality at 24 ppm of at least 80%. For the same compound, the mortality at 200 ppm in experiment [1] and in experiment [2] was at least 80% each time. Moreover, the mortality at 12 ppm in experiment [3] was at least 80%.
In experiment [4], `Cn1cc(-n2c3cccn(Cc4ccc(Cl)nc4)c-3nc2=O)c(C(F)F)n1` [Compound A95, 4-[(6-chloro-3-pyridyl)methyl]-1-[3-(difluoromethyl)-1-methyl-pyrazol-4-yl]imidazo[4,5-b]pyridin-2-one] returned a mortality at 24 ppm of at least 80%. Besides, in experiment [1], the mortality at 200 ppm was at least 80%. In experiment [3], the mortality at 12 ppm is at least 80%.
Take `Cn1cc(-n2c3cccn(Cc4ccc(Cl)nc4)c-3nc2=O)c(C(F)(F)F)n1` [Compound A96, 4-[(6-chloro-3-pyridyl)methyl]-1-[1-methyl-3-(trifluoromethyl)pyrazol-4-yl]imidazo[4,5-b]pyridin-2-one]: the mortality at 24 ppm in experiment [4] was at least 80%. Besides, the mortality at 200 ppm in experiment [1] and in experiment [2] was at least 80% each time. Further, the mortality at 12 ppm in experiment [3] was at least 80%.
With `Cn1ncc(-n2c3cccn(Cc4ccc(Cl)nc4)c-3nc2=O)c1C(F)F` [Compound A97, 4-[(6-chloro-3-pyridyl)methyl]-1-[5-(difluoromethyl)-1-methyl-pyrazol-4-yl]imidazo[4,5-b]pyridin-2-one], in experiment [4], the mortality at 24 ppm is at least 80%. For the same compound, the mortality at 200 ppm in experiment [1] was at least 80%. Also, the mortality at 12 ppm in experiment [3] was at least 80%.
`Cc1nn(C(F)F)cc1-n1c2cccn(Cc3ccc(Cl)nc3)c-2nc1=O` [Compound A98, 4-[(6-chloro-3-pyridyl)methyl]-1-[1-(difluoromethyl)-3-methyl-pyrazol-4-yl]imidazo[4,5-b]pyridin-2-one] displayed a mortality at 24 ppm in experiment [4] of at least 80%. This compound gave a mortality at 200 ppm in experiment [1] of at least 80%. The mortality at 12 ppm in experiment [3] was at least 80%.
Compound `Cc1c(-n2c3cccn(Cc4ccc(Cl)nc4)c-3nc2=O)cnn1C(F)F` [Compound A99, 4-[(6-chloro-3-pyridyl)methyl]-1-[1-(difluoromethyl)-5-methyl-pyrazol-4-yl]imidazo[4,5-b]pyridin-2-one] had a mortality at 24 ppm in experiment [4] of at least 80%. The mortality at 200 ppm in experiment [1] was at least 80%. This compound also had a mortality at 12 ppm in experiment [3] of at least 80%.
On to `CCn1cc(-n2c3cccn(Cc4ccc(Cl)nc4)c-3nc2=O)c(C)n1` [Compound A101, 4-[(6-chloro-3-pyridyl)methyl]-1-(1-ethyl-3-methyl-pyrazol-4-yl)imidazo[4,5-b]pyridin-2-one], for which the mortality at 200 ppm in experiment [1] and in experiment [2] was at least 80% in each case. The mortality at 12 ppm in experiment [3] is at least 80%.

The record behind these values is patent US20210238176A1, “PESTICIDALLY-ACTIVE BICYCLIC HETEROAROMATIC COMPOUNDS” (SYNGENTA CROP PROTECTION AG, priority 2018, published 2021).
